From the NIST ThermoML archive (doi:10.1007/s10765-011-0995-x)

Key:
[1] = xn = mol fraction of the nth substance listed; conditions: 101 kPa, Liquid; for speed of sound: Pulse-echo method
[2] = refractive index (Na D-line) (dimensionless); xn = mol fraction of the nth substance listed; conditions: 101 kPa, Liquid, Standard Abbe refractometry

Cc1ccc(Cl)cc1 [4-chlorotoluene] + CCCCCCCCCCO
Conditions	mass density, [1] [kg/m3]	refractive index, [2]	speed of sound, [1] [m/s]	viscosity, [1] [mPa·s]
298.15 K, x1 = 0.0718	837.82	1.4376	1373.1	9.725
298.15 K, x1 = 0.1353	848.32	1.4405	1366.4	8.154
298.15 K, x1 = 0.1976	859.01	1.4437	1359.4	6.842
298.15 K, x1 = 0.2703	872.09	1.4477	1350.9	5.561
298.15 K, x1 = 0.341	885.46	1.4519	1342.3	4.546
298.15 K, x1 = 0.4103	899.31	1.4566	1333.9	3.733
298.15 K, x1 = 0.482	914.52	1.4618	1325	3.045
298.15 K, x1 = 0.5531	930.57	1.4676	1316.5	2.495
298.15 K, x1 = 0.6234	947.55	1.4738	1308.6	2.058
298.15 K, x1 = 0.7045	968.72	1.4818	1300.2	1.654
298.15 K, x1 = 0.7497	981.35	1.4866	1296.1	1.472
298.15 K, x1 = 0.8196	1002.21	1.4947	1291	1.239
298.15 K, x1 = 0.8907	1025.23	1.5035	1288	1.047
298.15 K, x1 = 0.9556	1048.23	1.5124	1287.5	0.907
298.15 K, x1 = 1	1065.11	1.5188	1289.1	0.828
303.15 K, x1 = 0.0718	834.11	1.4357	1357.3	8.053
303.15 K, x1 = 0.1353	844.43	1.4387	1350.1	6.766
303.15 K, x1 = 0.1976	854.95	1.4418	1342.7	5.705
303.15 K, x1 = 0.2703	867.83	1.4458	1333.7	4.658
303.15 K, x1 = 0.341	881.03	1.4501	1324.7	3.825
303.15 K, x1 = 0.4103	894.71	1.4547	1315.9	3.162
303.15 K, x1 = 0.482	909.75	1.46	1307	2.608
303.15 K, x1 = 0.5531	925.66	1.4657	1298.4	2.157
303.15 K, x1 = 0.6234	942.5	1.4719	1290.5	1.798
303.15 K, x1 = 0.7045	963.53	1.4798	1282.3	1.472
303.15 K, x1 = 0.7497	976.09	1.4846	1278.3	1.325
303.15 K, x1 = 0.8196	996.85	1.4926	1273	1.134
303.15 K, x1 = 0.8907	1019.78	1.5015	1269.5	0.972
303.15 K, x1 = 0.9556	1042.69	1.5104	1269.1	0.85
303.15 K, x1 = 1	1059.51	1.5166	1271	0.784
308.15 K, x1 = 0.0718	830.35	1.4337	1338.2	6.713
308.15 K, x1 = 0.1353	840.48	1.4367	1330.8	5.652
308.15 K, x1 = 0.1976	850.84	1.4398	1323.1	4.769
308.15 K, x1 = 0.2703	863.56	1.4439	1313.8	3.909
308.15 K, x1 = 0.341	876.62	1.4481	1304.8	3.23
308.15 K, x1 = 0.4103	890.19	1.4527	1295.9	2.678
308.15 K, x1 = 0.482	905.12	1.458	1286.9	2.224
308.15 K, x1 = 0.5531	920.91	1.4637	1278.3	1.851
308.15 K, x1 = 0.6234	937.62	1.4698	1270.5	1.558
308.15 K, x1 = 0.7045	958.46	1.4776	1262.5	1.289
308.15 K, x1 = 0.7497	970.92	1.4824	1258.5	1.166
308.15 K, x1 = 0.8196	991.5	1.4902	1253.9	1.008
308.15 K, x1 = 0.8907	1014.28	1.499	1250.7	0.875
308.15 K, x1 = 0.9556	1037.1	1.5078	1251	0.781
308.15 K, x1 = 1	1053.9	1.5138	1253.1	0.73
